Measurements from patent US20170071976A1, “PHARMACEUTICAL SOLUTION HAVING ANTI-TUMOR EFFECT-ENHANCING AND TOXICITY-REDUCING EFFECT, AND PHARMACEUTICAL COMPOSITION COMPRISING SAME” (priority 2014, published 2017).
Where “and” joins values, the source holds several entries; their conditions need not be identical. Identical values can stand only once. Marks after values point to notes of the source that are not given here.

Assays:
[1] = test system: malignant tumors; conditions: as a single drug in clinical settings; cited from earlier work
[2] = test system: Ehrlich ascites tumor (EAC); experiment: Survival of Ehrlich ascites tumor-bearing mice, intraperitoneal perfusion (lavage) with deuterium oxide and 5-FU; format: in vivo, ICR mice; conditions: i.p., 10 days; for MST: control 14.1 ± 1.9
Method: Studying 1: Efficacy of intraperitoneal perfusion (lavage) with deuterium oxide in combination with 5-fluorouracil on Ehrlich ascites tumor (EAC)-bearing mice.
Laboratory animal: 4 to 5 week-aged male ICR mice, provided by Shanghai SIPPR-BK Laboratory Animal Co. Ltd.
1. Modeling: EAC ascitic fluid was taken and adjusted to 1×10^7 cells/ml, which was inoculated into the peritoneal cavity of mice at 0.1 ml/mouse. 2. Grouping and dosing: the animals were randomized 3 days after inoculation, and meanwhile drugs were given to mice in each group, following the dosing scheme shown in Table 10.
In Table 10, “Sodium chloride deuterium oxide solution 0.1 ml/animal+5-FU 20 mg/kg” means that each mouse was given 0.1 ml sodium chloride deuterium oxide solution, in which 5-FU had been dissolved to make a dose of 20 mg/kg.
After the dosing, ascitic fluid was taken from 3 mice from each group, the volume of the ascitic fluid was measured, the number of tumor cells in the ascitic fluid was counted, and the rest of animals were continuously fed. Median survival time (MST) was recorded for animals in each group to evaluate the survival time for each group.
The comparison between the treatment group and the control group was expressed by T/C (%) which is calculated by the following equation: […]
T MST: MST of the treatment group; C MST: MST of the negative control group.
The evaluation criterion uses 125% as a cut-off threshold. When T/C %≧125%, effective, otherwise ineffective.
The mean value was expressed in X±SD. Inter-group analysis was statistically performed with t test. The results were statistically analyzed using SPSS (Statistical Package for the Social Science) 17.0.

[3] = test system: xenograft tumors from human colon cancer HCT-116 cells; experiment: HCT-116 xenograft in nude mice, intravenous deuterium oxide in combination with 5-fluorouracil; format: in vivo, BALB/c nude mice; conditions: for Inhibition (%): tumor weight
Method: Ltd. Cell lines: human colon cancer cells HCT-116 were provided by NANJING […] BIOTECH. CO., LTD. […] Bone marrow nucleated cells were isolated by a routine method, DNA was extracted from the cells, the OD value was measured in a UV-260 spectrometer as a representative of the DNA content, and inhibition of DNA synthesis by the test samples was observed. The test used 7 groups in total, with 8 animals per group. […] Tumor volume (TV) was calculated by the following equation: […] From the measurements, relative tumor volume (RTV) was calculated by the following equation: RTV=Vt/V0 Relative tumor growth ratio T/C (%) was calculated by the following equation: Criteria of efficacy evaluation: […] T/C %≦40% and statistically P<0.05, efficacious. Inhibition of tumor growth (%) was calculated by the following equation: Criteria of efficacy evaluation: […] The mean value was expressed in X±SD. Inter-group analysis was statistically performed with t test. The results were statistically analyzed using SPSS (Statistical Package for the Social Science) 17.0.

[4] = test system: human lung cancer A549 cells; experiment: Cell invasion assayed by Transwell; format: cell-based; conditions: invaded cells, control 183.0 ± 12.3
Method: Cell lines: human colon cancer HCT-116 cells and human lung cancer A549 cells were provided by NANJING […] BIOTECH. CO., LTD. […] The cell suspension was centrifuged at 800 to 1,000 rpm for 5 min, and the supernatant was discarded; 1.4. A complete culture medium was added to the cell pellet which was well mixed by gentle pipetting, the cell suspension was transferred to a culture flask, and the cells were cultured by supplementing culture medium. 1. […] After incubation of cells with the test drugs for 24 hours, serum was removed, and the cells were incubated under starvation with an incomplete culture medium for 24 hours; 3. Matrigel was placed at 4° C. in advance to thaw overnight; 4. Thawed Matrigel was 1:1 diluted with the incomplete culture medium, 30 μl diluted Matrigel was added to the upper compartment of Transwell and incubated at 37° C. for 120 min to gel the Matrigel; 5. Cells from different groups were digested, counted, and then adjusted to a density of 1×10^5 cells/ml with the incomplete culture medium, 100 μl cell suspension was added to the upper compartment (small compartment) of Transwell, and 500 μl medium containing 20% FBS was added to the lower compartment of Transwell; 6. A 24-well cell culture plate was placed in an incubator at 37° C. and 5% CO2 to culture the cells for 24 hours; 7. […] The assay was repeated one more time.

[5] = test system: human lung cancer A549 cells; experiment: Cell cycle by PI single staining (flow cytometry); format: cell-based; conditions: deuterium oxide 30% v/v, 72 hours
Method: Effect of deuterium oxide on the cell cycle of human lung cancer A549 cells and human colon cancer HCT-116 cells Human lung cancer A549 cells and human colon cancer HCT-116 cells were provided by NANJING […] BIOTECH. CO., LTD., and cultured in an incubator at 37° C., 5% CO2 and saturated humidity. A KGA511 Cell cycle assay kit was provided by NANJING […] BIOTECH. CO., LTD. The flow cytometer was FACS Calibur provided by Becton-Dickinson, US. […] The cell suspension was centrifuged at 800 to 1,000 rpm for 5 min, and the supernatant was discarded; 1.4. A complete culture medium was added to the cell pellet which was well mixed by gentle pipetting, the cell suspension was transferred to a culture flask, and the cells were cultured by supplementing culture medium. […] When all the cells became round, an equal volume of culture medium containing serum was added to cease the digestion; 2.4. The cells were blown by pipetting to suspend, then drawn into a 15 ml centrifugal tube, and centrifuged at 1000 rpm for 5 min; 2.5. […] 1. Cells growing in the exponential phase were digested and inoculated to a 6-well plate; on the next day, after the cells attached to the wall, cell culture media containing corresponding test drugs were added according to different groups, and a negative control group was also set; 2. […] The cells were washed with PBS once (centrifuged at 2,000 rpm for 5 min), and 5×10^5 cells were collected; 4. […] In a detection apparatus, red fluorescence with an excitation wavelength of 488 nm was recorded.

[6] = 5-FU(H) 30 mg/kg × 11, tail vein
[7] = 5-FU(L) 12 mg/kg × 11, tail vein

O=c1[nH]cc(F)c(=O)[nH]1 [Example 5-FU, 5-fluorouracil]
overall response rate [1]: 10% | T/C(%) ([2]; 5-FU 20 mg/kg in NS): 154.6% | MST ([2]; 5-FU 20 mg/kg in NS): 21.8 ± 2.9 days | T/C(%) ([2]; 5-FU 30 mg/kg in NS): 158.1% | MST ([2]; 5-FU 30 mg/kg in NS): 22.3 ± 4.9 days | Body weight (g) End, given as change [3, 6]: -1.0 g | Body weight (g) Initial [3, 6]: 18.4 ± 0.5 g and 18.4 g | Bone marrow DNA content (OD) [3, 6]: 0.836 ± 0.5023 OD | Tumor weight [3, 6]: 1.04 ± 0.13 g | Body weight (g) End, given as change [3, 7]: -0.6 g | Body weight (g) Initial [3, 7]: 18.0 g | Bone marrow DNA content (OD) [3, 7]: 0.897 ± 0.3783 OD | Tumor weight [3, 7]: 2.23 ± 0.2 g | tumor volume ([3]; 21 days after administration, low-dose 5-FU alone): 2.27±0.30 cm^3 | body weight at end ([3]; high-dose 5-FU positive control): 17.4 ± 0.5 g | T/C (relative tumor growth ratio) ([3]; low-dose 5-FU alone, vs negative control): 80.91% | Inhibition (%) [3, 6]: 64.38%* | Inhibition (%) [3, 7]: 23.64% and 23.63%

[2H]O[2H] [Deuterium oxide]
Number of cells (A549) ([4]; deuterium oxide 1.8% (v/v)): 74.3 ± 11.0 | Number of cells (A549) ([4]; deuterium oxide 7.5% (v/v)): 43.0 ± 4.4 | Number of cells (A549) ([4]; deuterium oxide 15% (v/v)): 29.3 ± 1.5 | Number of cells (A549) ([4]; deuterium oxide 30% (v/v)): 22.0 ± 1.7 | Number of cells (A549) ([4]; deuterium oxide […] (v/v)): 54.0 ± 2.0 | G2 Phase ([5]; control 6.21 ± 4.52): 13.47 ± 3.94% | S Phase ([5]; control 13.50 ± 1.33): 0.31 ± 0.28% | G1 Phase ([5]; control 80.29 ± 5.02): 86.23 ± 3.69%
